According to patent US20130303486A1, “Compositions Comprising Zoledronic Acid or Related Compounds for Relieving Pain Associated with Arthritis” (priority 2012, published 2013):
Like-named read-outs stand apart in the source and are kept apart here.

Experiments:
[1] = system: inflammatory pain (mechanical hyperalgesia), CFA-injected hind paw; assay type: in vivo, Sprague-Dawley rats
Method: The effect of orally administered zoledronic acid on inflammatory pain was examined using the rat complete Freund's adjuvant (CFA) model. Inflammatory pain was induced by injection of 100% CFA in a 75 μL volume into the left hind paws of Sprague-Dawley rats on day 0, followed by assessments on days 1-3. Animals were orally administered vehicle (control), zoledronic acid 18 mg/m^2 (or 3 mg/kg), zoledronic acid 120 mg/m^2 (or 20 mg/kg), or zoledronic acid 900 mg/m^2 (or 150 mg/kg) daily on days 1-3. Drug was dissolved in distilled water and prepared fresh daily. Animals were fasted prior to dosing. Under current FDA guidelines for extrapolating starting dosages from animals to humans, dosages expressed in mg/m^2 are considered equivalent between mammalian species. Thus, for example, 18 mg/m^2 in a rat is considered equivalent to 18 mg/m^2 in a human being, while 3 mg/kg in a rat may not be equivalent to 3 mg/kg in a human being.
Values for inflammatory pain (mechanical hyperalgesia) in the vehicle and drug-treated animals were obtained on day 0 prior to CFA injection, and at baseline and post-treatment on days 1-3. Pain was assessed using a digital Randall-Selitto device (dRS; IITC Life Sciences, Woodland Hills, Calif.). Animals were placed in a restraint sling that suspended the animal, leaving the hind limbs available for testing. Paw compression threshold was measured by applying increasing pressure to the plantar surface of the hind paw with a dome-shaped tip placed between the 3rd and 4th metatarsus. Pressure was applied gradually over approximately 10 seconds. Measurements were taken from the first observed nocifensive behavior of vocalization, struggle or withdrawal. A cut-off value of 300 g was used to prevent injury to the animal.
Reversal of inflammatory pain was calculated according to the formula:
% reversal=(Post-treatment−Post-CFA baseline)/(Pre-CFA baseline−Post-CFA baseline)×100.
The experiment was carried out using 9-10 animals per group.

[2] = system: complex regional pain syndrome (CRPS), fracture hindpaw; assay: rat tibia fracture model of complex regional pain syndrome (CRPS): von Frey, weight bearing, edema, warmth; assay type: in vivo; details: oral 18 mg/m^2/day (3 mg/kg/day) for 28 days
Method: The effect of orally administered zoledronic acid was examined in the rat tibia fracture model of complex regional pain syndrome (CRPS). CRPS was induced in the rats by fracturing the right distal tibias of the animals and casting the fractured hindpaws for 4 weeks, as described in Guo T Z et al. (Pain. 2004; 108:95-107).
Animals were orally administered either vehicle (control) or zoledronic acid, in a dosage of 18 mg/m^2/day (3 mg/kg/day) for 28 days, starting on the day of fracture and casting. Drug was dissolved in distilled water and administered by gavage. Animals were fasted for 4 hours before and 2 hours after dosing. At the end of the 28-day period, casts were removed, and on the following day, the rats were tested for hindpaw pain, edema, and warmth.
Pain was assessed by measuring hyperalgesia, and weight bearing. […]
An incapacitance device (IITC Inc. Life Science, Woodland, Calif., USA) was used to measure hindpaw weight bearing, a postural effect of pain. […] Eight readings (excluding the highest and lowest ones) were averaged to calculate the bilateral hindpaw weight-bearing values. Weight bearing data were analyzed as the ratio between right (fracture) and left hindpaw weight bearing values ((2R/(R+L))×100%). […]
The temperature of the hindpaw was measured using a fine wire thermocouple (Omega, Stanford, Conn., USA) applied to the paw skin. […]

O=P(O)(O)C(O)(Cn1ccnc1)P(=O)(O)O [zoledronic acid]
paw compression thresholds compared to vehicle ([1]; oral 18 mg/m^2, entire measurement period after 30 minutes from start of treatment): higher than for vehicle
paw compression thresholds compared to vehicle ([1]; oral 120 mg/m^2 (20 mg/kg) daily days 1-3, all time points): approximately equal or inferior to vehicle
toxicity ([1]; oral 900 mg/m^2 (150 mg/kg) daily days 1-3, all animals euthanized two days after cessation of dosing): significant toxicity
paw compression thresholds compared to vehicle ([1]; oral 900 mg/m^2, day three): greater than for vehicle
paw compression thresholds compared to vehicle ([1]; oral 900 mg/m^2, first two days of dosing): lower than vehicle
reversal of fracture induced pain (von Frey pain threshold) as compared to vehicle [2]: 77%
